pIC50: −log10 of the molar value.
Legend:
[1] = target: T1, CB1 receptor (Homo sapiens, UniProt P21554); assay: [35S]-GTPγS binding assay, membranes of cells stably transfected with the CB1 gene, inhibition of agonist CP55940 (EC80); type: biochemical; details: half maximal inhibition of GTPγS binding; EC80 concentration of CP55940
T1 construct: expressed in transfected cells
Experimental: Compounds of the present invention are active against the receptor product of the CB1 gene. The affinity of the compounds of the invention for central cannabinoid receptors is demonstrable in methods described in Devane et al , Molecular Pharmacology, 1988, 34,605 or those described in WO01/70700 or EP 656354. Alternatively the assay may be performed as follows.
10 μg of membranes prepared from cells stably transfected with the CB1 gene were suspended in 200 μl of 100 mM NaCl, 5 mM MgCl2, 1 mM EDTA, 50 mM HEPES (pH 7.4), 1 mM DTT, 0.1% BSA and 100 μM GDP. To this was added an EC80 concentration of agonist (CP55940), the required concentration of test compound and 0.1 μCi [^35S]-GTPγS. The reaction was allowed to proceed at 30° C. for 45 min. […] Filters were then covered with scintilant and counted for the amount of [^35S]-GTPγS retained by the filter.
Activity is measured in the absence of all ligands (minimum activity) or in the presence of an EC80 concentration of CP55940 (maximum activity). […] At various concentrations of novel ligand, activity is calculated as a percentage of the maximum activity and plotted. The data are fitted using the equation y=A+((B-A)/1+((C/x) UD)) and the IC50 value determined as the concentration required to give half maximal inhibition of GTPγS binding under the conditions used.

[2] = Solubility in dimethyl sulfoxide; type: physicochemical
Source text: The compounds of the present invention have improved solubility in organic solvents compared to compounds in the prior art. […] It would be expected that this increase in solubility in organic solvents would lead to improvements in bioavailability and ease of manufacture and formulation.

T1 sequence (P21554 whole entry): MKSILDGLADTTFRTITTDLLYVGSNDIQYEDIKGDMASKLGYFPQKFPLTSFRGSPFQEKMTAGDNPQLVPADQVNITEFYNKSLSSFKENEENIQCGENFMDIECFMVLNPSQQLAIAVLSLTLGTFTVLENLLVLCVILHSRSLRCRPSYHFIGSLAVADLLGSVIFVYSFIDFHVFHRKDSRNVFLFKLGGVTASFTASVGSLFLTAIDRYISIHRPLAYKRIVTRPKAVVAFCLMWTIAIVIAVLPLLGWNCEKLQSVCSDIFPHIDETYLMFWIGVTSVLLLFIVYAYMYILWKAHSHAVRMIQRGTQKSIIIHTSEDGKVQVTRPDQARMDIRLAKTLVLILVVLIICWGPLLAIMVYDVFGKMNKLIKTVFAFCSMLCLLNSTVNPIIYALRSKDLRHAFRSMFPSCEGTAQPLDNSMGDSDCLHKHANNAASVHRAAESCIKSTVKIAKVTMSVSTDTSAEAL

Row | Compound | pIC50 [1] | solubility in dimethyl sulfoxide [2]
1 | Cc1c2c(n(-c3ccccc3Cl)c1-c1ccc(OS(=O)(=O)CCC(F)(F)F)cc1)CCN(N1CCCCC1)C2=O [Example 1, 3,3,3-Trifluoropropane-1-sulfonic acid 4-[1-(2-chlorophenyl)-3-methyl-4-oxo-5-piperidin-1-yl-4,5,6,7-tetrahydro-1H-pyrrolo[3,2-c]pyridine-2-yl]phenyl ester] | 9.01 | 
2 | Cc1c2c(n(-c3ccc(Cl)cc3Cl)c1-c1ccc(Cl)cc1)CCN(N1CCCCC1)C2=O [Example 19 of WO03/027114, 2-(4-chlorophenyl)-1-(2,4-dichlorophenyl)-3-methyl-5-(1-piperidinyl)-1,5,6,7-tetrahydro-4H-pyrrolo-[3,2-c]pyridin-4-one] |  | insoluble
